Data on four compounds can be found in patent US7767417B2, “Prenyl-electrostatic switch, and methods of use” (New York University, priority 2004, dated 2010).

Data set [1] deals with GFP-K-Ras. Nature of the data set: Live-cell imaging of GFP-K-Ras translocation from plasma membrane to internal membranes. Particulars: for effect of inhibitor pretreatment on stimulated K-Ras translocation: 100 nM Ro 31-8220 or 15 μg/ml W-13, 10 min prior to stimulation with bryostatin-1 or PMA+Iono. Type of data set: cell-based, human. On the procedure: COS-1, HeLa, and MDCK cells were maintained in 5% CO2 in Dulbecco's Modified Eagle Medium (“DMEM”) supplemented with 4 mM 1-glutamine, 1.5 g/L sodium bicarbonate, 4.5 g/L glucose, and 10% fetal bovine serum (“FBS”) (Cellgro®). MDCK cells stably expressing GFP-K-Ras or GFP-H-Ras were selected in G418 and sorted by FACS to yield cell lines expressing relatively low levels of the fluorescent Ras proteins (1-3 fold endogenous by immunoblots). NIH 3T3 cells were maintained in 10% CO2 in DMEM supplemented with 4 mM 1-glutamine, 1.5 g/L sodium bicarbonate, 4.5 g/L glucose, and 10% calf serum (Colorado Serum Co., Denver, Colo.). Jurkat T cells were maintained in 5% CO2 in RPMI containing 10% FBS. Cells to be examined by fluorescence microscopy were seeded at 2×10^5 per plate into 35 mm dishes containing a glass coverslip-sealed 15 mm cutout (MatTek, Ashland, Mass.) and transfected the next day using Lipofectamine (Invitrogen, Carlsbad, Calif.; NIH 3T3), Lipofectamine 2000 (Invitrogen, Carlsbad, Calif.; COS-1, HeLa, MDCK), or DMRIE (Invitrogen, Carlsbad, Calif.; Jurkat), according to the manufacturers' instructions. To ensure co-transfection of untagged cDNAs and fluorescent constructs, a DNA ratio of at least 5:1 (untagged:fluorescent) was used.
(§1) Cells were stimulated while under continuous observation by adding 100 nM bryostatin-1 (Biomol), 100 nM PMA with or without 500 ng/ml lonomycin, or 5 ng/ml anti-CD3 to 35 mm MatTek plates maintained at 37° C. using a PDMI-2 microincubator (Harvard Apparatus, Holliston, Mass.). Treatment of cells with 100 nM Ro 31-8220 (Biomol, Plymouth Meeting, Pa.) or 15 μg/ml W-13 Hydrochloride (EMD Biosciences, San Diego, Calif.) was initiated 10 min prior to stimulations. Where indicated, 25 pM MitoTracker Red CMXRos (Molecular Probes, Eugene, Oreg.) was added 10 min prior to stimulation. Living cells were imaged with a Zeiss 510 inverted laser scanning confocal microscope (“LSM”). A minimum of five […] Z slices were acquired for each cell at each time point and representative images were chosen to display both plasma membrane and endomembranes. Fluorescence resonance energy transfer (“FRET”) on mitochondria between CFP-K-Ras and YFP-Bcl-XL was detected by bleaching the acceptor (YFP-Bcl-XL) on individual mitochondria and measuring the increase in CFP emission intensity as quenching was released. FRET efficiency was calculated as [ICFP(post-bleach)−ICFP(pre-bleach)]/ICFP(post-bleach). TIFF images were processed with Adobe Photoshop 7.0.

For data set [2], the system named is K-Ras12V and Bcl-XL. As to the kind of experiment: Colocalization and FRET between K-Ras12V and Bcl-XL on mitochondria. Type of data set: cell-based, human. On the procedure: as §1
Data set [3] has as its system K-Ras12V-dependent tumors. Nature of the data set: Tumor growth assay in nude mice. The format is in vivo, athymic nude BALB/c mice. Particulars: intraperitoneal 25 μg/kg daily for 3 days. As to the method: NIH 3T3 cells stably transfected as per the soft agar assays were injected (5×10^5 cells) subcutaneously into the flanks of 4-6 week old athymic nude BALB/c mice. After formation of palpable tumors, mice were treated daily for 3 days with intraperitoneal DMSO vehicle or bryostatin-1 (25 μg/kg). Tumor volume was measured daily and differences in growth rates were evaluated for statistical significance by ANOVA.

Data set [4] relates to NIH 3T3 cells stably transfected with K-Ras12V or K-Ras12V181A. As to the kind of experiment: Soft agar assay. The format is cell-based. Particulars: two weeks. On the procedure: NIH 3T3 cells stably transfected with pCGN-hyg, or the same vector encoding K-Ras12V or K-Ras12V 181 A were plated as single cell suspensions (2×10^4 cells/35-mm well) in 0.4% agar over a bottom layer of 0.6% agar, both containing DMSO vehicle or various concentrations of bryostatin-1. After two weeks, the percentage of plated cells that formed colonies (>5 cell diameters across) was determined.

Data set [5] has as its system a variety of tumors. Particulars: phase I and II trials, cited from earlier work.
For data set [6], the system named is NIH3T3 cells transformed with K-Ras12V or K-Ras12V181A. Nature of the data set: Apoptosis of K-Ras transformed fibroblasts. The format is cell-based. An excerpt: To confirm that K-Ras12V phosphorylated on S181, like phosphomimetic K-Ras12V181E, is pro-apoptotic, the capacity of PKC agonists to induce apoptosis of K-Ras transformed fibroblasts was examined. […] Thus, the sensitization to PKC-mediated apoptosis afforded by K-Ras transformation can be attributed to phosphorylation at S181.

Data set [7] concerns endogenous Ras. Nature of the data set: Anti-Ras immunogold electron microscopy of Jurkat T cells. The format is cell-based. On the procedure:
Jurkat cells (in suspension) were treated with 100 nM bryostatin-1 or vehicle (dimethyl sulfoxide (“DMSO”)) for 30 minutes at 37° C. and then fixed with 2% formaldehyde and 0.2% glutaraldehyde in 0.1 M sodium phosphate buffer, pH 7.4. After washing in buffer, the cells were pelleted by centrifugation, embedded in 10% gelatin, cooled in ice, and cut into 1-mm^3 blocks in the cold room. The blocks were infused with 2.3 M sucrose at 4° C. for at least 2 hours, frozen in liquid nitrogen, and stored until cryo-ultramicrotomy. 100-nm-thick section were cut at −120° C. using an Ultracut T/FCS (Leica) equipped with an antistatic device (Diatome) and a diamond knife (Drukker). Ultrathin sections were picked up in a mix of 1.8% methylcellulose and 2.3 M sucrose (1:1) (Liou et al., “Improving Structural Integrity of Cryosections for Immunogold Labeling,” Histochemistry and Cell Biology 106:41-58 (1996), which is hereby incorporated by reference in its entirety). Cryosections were collected on formvar-coated copper grids and incubated with Ras10 monoclonal antibody (Upstate, Charlottesville, Va.) followed by rabbit anti-mouse antibodies and then protein A gold (Slot et al., “A New Method of Preparing Gold Probes for Multiple-Labeling Cytochemistry,” Eur. J. Cell. Biol. 38:87-93 (1985), which is hereby incorporated by reference in its entirety). After labeling, the sections were treated with 1% glutaraldehyde, counterstained with uranyl acetate, and embedded in methyl cellulose-uranyl acetate (Slot et al., “Immuno-Localization of the Insulin Regulatable Glucose Transporter in Brown Adipose Tissue of the Rat,” J. Cell. Biol. 113:123-135 (1991), which is hereby incorporated by reference in its entirety). Images were acquired with a JEOL electron microscope JEM-1200 EX II at 80 kV.

The test system of data set [8] is K-Ras. As to the kind of experiment: Metabolic labeling with [32P]orthophosphate of COS-1 cells expressing K-Ras constructs. The format is cell-based, human. Particulars: 100 nM bryostatin-1 for 20 min. On the procedure: Twenty-four hours after transfection with various K-Ras constructs, COS-1 cells were pre-incubated at 37° C. for 4 hours in phosphate-free DMEM containing 10% dialyzed fetal calf serum (“FCS”). The medium was then replaced with phosphate-free DMEM containing 2 mCi of [^32P]orthophosphate. After 6 hours of labeling, the cells were stimulated with 100 nM bryostatin-1 for 20 min at 37° C. Jurkat cells were rinsed three times with prewarmed phosphate-free DMEM, and then incubated at 37° C. for 6 hours in phosphate-free DMEM containing 10% FBS (3:1 undialyzed:dialyzed) and 0.5 mCi/ml [^32P]orthophosphate. After incubation, the ^32P-labeled cells were rinsed with prewarmed phosphate-free DMEM, and then stimulated with either anti-CD3 (10 μg/ml) or vehicle control for 30 min at 37° C. Both types of cells were then lysed in RIPA buffer containing protease inhibitors (Roche, Basel, Switzerland) and 10 μM microcystin and 5 mM NaF. K-Ras was immunoprecipitated using agarose conjugated with Y13-259 monoclonal anti-Ras antibody (Santa Cruz Biotechnology, Inc., Santa Cruz, Calif.), analyzed by SDS-PAGE and visualized by phosphorimager.

Setting [9] is: 100 nM bryostatin-1, living cells.

Regarding `Cn1cc(C2=C(c3cn(CCCSC(=N)N)c4ccccc34)C(=O)NC2=O)c2ccccc21` [Ro 31-8220], the “effect of inhibitor pretreatment on stimulated K-Ras translocation” value in data set [1] was “completely blocked”.
Still for that read-out and setting: the same measure for `NCCCCNS(=O)(=O)c1ccc2c(Cl)cccc2c1` [W-13]: “had no effect”.
Consider `CCC/C=C/C=C/C(=O)O[C@H]1/C(=C/C(=O)OC)C[C@H]2C[C@H]([C@@H](C)O)OC(=O)C[C@H](O)C[C@@H]3C[C@H](OC(C)=O)C(C)(C)[C@](O)(C[C@@H]4C/C(=C/C(=O)OC)C[C@H](/C=C/C(C)(C)[C@]1(O)O2)O4)O3` [bryostatin-1], for which, in data set [2] (Cos-1 cell, 5 min after bryostatin-1), the “FRET efficiency between YFP-K-Ras12V and CFP-Bcl-XL on treated mitochondria” value is on record as 17±8%. The “colocalization of CFP-K-Ras12V with YFP-Bcl-XL on outer mitochondrial membrane” value in data set [2] (after stimulation with PKC agonist) is given as “colocalized with YFP-Bcl-XL”. Further, the “growth of tumors established with K-Ras12V181A transformed fibroblasts” value in data set [3] is “resistant”. For the same compound, the “growth of tumors established with K-Ras12V transformed fibroblasts” value in data set [3] (p<0.05, ANOVA) is “sensitive”. Moreover, in data set [4] (K-Ras12V181A), the “soft agar growth induced by K-Ras12V181A” value is listed as “insensitive”. Moreover, the “K-Ras12V induced colony growth of fibroblasts in soft agar” value in data set [4] (K-Ras12V) was “inhibited”. Besides, the clinical efficacy result in data set [5] (variety of tumors) is “exhibited clinical efficacy”. For the same compound, in data set [5], the toxicity entry was “minimal toxicity”. Also, the “induction of apoptosis in K-Ras12V versus K-Ras12V181A transformed cells” value in data set [6] is “induced apoptosis to a much higher extent in cells transformed with K-Ras12V than those transformed with K-Ras12V181A”. In addition, in data set [1] (setting [9]), the “onset of translocation of GFP-K-Ras from the plasma membrane to intracellular membranes” value is less than 1 min and the “time to maximal translocation of GFP-K-Ras from the plasma membrane to intracellular membranes” value is 3 min. The “reversibility of effect on K-Ras localization” value in data set [1] (COS-1 cells, GFP-K-Ras12V, 3 min treatment, 10 min washout) is “reversible”. Also, the “association of GFP-K-Ras / GFP-H-Ras with mitochondria” value in data set [1] (MDCK cell lines stably expressing at endogenous levels, MitoTracker Red) is listed as “stimulated rapid association of GFP-K-Ras but not GFP-H-Ras with mitochondria”. Besides, in data set [7] (100 nM bryostatin-1 30 min, untreated 6.4±0.5), the “10 nm gold particles per area of cytoplasm (excluding plasma membrane)” value is 31.0±1.1 gold particles/μm^2. In addition, in data set [7] (bryostatin-1 treated), the “gold particles associated with mitochondria” value was found to be 49% and the “mitochondria associated gold particles located within 30 nm of the outer mitochondrial membrane” value amounted to 81%. Also, the “phosphorylation of K-Ras (32P incorporation)” value in data set [8] is given as “induced phosphorylation”.
Turning to `C=C1[C@@H](O)[C@@H]2O[C@]3(CC[C@H](/C=C/[C@@H](C)[C@@H]4CC(C)=C[C@@]5(O[C@H](C[C@@](C)(O)C(=O)O)CC[C@H]5O)O4)O3)CC[C@H]2O[C@@H]1[C@@H](O)C[C@H](C)[C@H]1O[C@@]2(CCCCO2)CC[C@H]1C` [okadaic acid], in data set [1] (100 nM PMA with or without 500 ng/ml ionomycin, compared with bryostatin-1), the “effect on GFP-K-Ras localization (translocation/internalization)” value was “induced partial internalization”.
